Laboratory results as given in US8957087B2, “Heterocyclic substituted acardite derivate and application thereof” (Jiangsu Provincial Institute of Materia Medica Co., Ltd., priority 2009, dated 2015).
Read-outs that look alike come from different tables or passages of the source.

What was measured:
Raf-1(truncated) = experiment: Raf-1 inhibitor screening by chemoluminescence method; format: biochemical; settings: Final concentration 1 x 1.0*10^−5 mol/ml
Source text: 1. Inhibitory activity of the compound of the present invention on raf kinase
Raf-1 inhibitor screening by chemoluminescence method
Westernblot electrophoresis apparatus Rotaryshaker
Raf-1(truncated), Magnesium/ATP Cocktail, MEK1 unactive

[1] = test system: human lung cancer cell strain A549; experiment: MTT assay, inhibition of growth of human lung cancer cell strain A549; format: cell-based
Procedure: 4. Using 3-(4,5-dimethylthiazol-2-yl)-2,5-diphenyl tetrazolium bromide assay (MTT) to detect the inhibition effects on the growth of human lung cancer cell strain A549
[Test materials] MTT working solution, F12 medium containing 10% FBS, continuous injectors
(§1) [Tested compound] Compounds 1-38
(§2) [Positive control medicine] Sorafenib, compounds A′, B′, C′ with no substituent or only amino formyl in A ring
The inhibition rate is calculated as follows:
(§3) Relative OD value of conrol well=OD value of control well−OD value of blank well
(§4) Relative OD value of drug well=OD value of drug well−OD value of blank well

[2] = test system: human high-metastic lung cancer cell 95D; experiment: Inhibition of human high-metastic lung cancer cell 95D migration (Boyden Chamber Transwell); format: cell-based; settings: Final concentration 1 x 1.0*10^(−5) mol/L
Procedure: 5 Inhibition effects of compounds on human high-metastic lung cancer cell 95D migration
[Test materials] Boyden Chamber Transwell chamber (with pore size of 8 μm), human high-metastic lung cancer cell 95D cell strain, 1640 medium containing 10% FBS, 1640 medium containing no serum
as §1, §2
(§5) The inhibition rate is calculated as follows: […]

lung cancer cell A549 = experiment: Effects on the adhesive ability of lung cancer cell A549; format: cell-based, human; settings: Final concentration 1 x 1.0*10^(−5) mol/L
Procedure: 6. Effects of tested compounds on the adhesive ability of lung cancer cell A549
[Test materials] gelatin, CCK8, poly-lysine (PLL), A549 cell stains, 1640 medium containing 10% FBS
(§6) [Tested compound] Compounds 1-38 to be tested
as §2, §5
Dosing dosing cells without cell group (gelatin adhesive OD/PLL adhesion OD)−Dosing cell group (gelatin adhesive OD/PLL adhesion OD value)
Dosing dosing cells without cell group (gelatin adhesive OD/PLL adhesion OD value)

[3] = test system: human umbilical vein endothelial cell HUVEC; experiment: Growth of human umbilical vein endothelial cell HUVEC by CCK8 method; format: cell-based; settings: Final concentration 1 x 1.0*10^(−5) mol/L
Source text: 7. Effects of tested compounds on the growth of human umbilical vein endothelial cell HUVEC cell by CCK8 method
[Test materials] CCK8, human umbilical vein endothelial cell HUVEC cell, 1640 medium containing 10% FBS
as §6, §2, §3, §4

[4] = test system: human umbilical vein endothelial cell HUVEC; experiment: Lumen formation ability of HUVEC (Matrigel method); format: cell-based; settings: Final concentration 1 x 1.0*10^(−5) mol/L
Source text: 8. Inhibition effects of compounds on the lumen formation ability of human umbilical vein endothelial cell HUVEC
[Experimental principles] The human umbilical vein endothelial cells have ability of spontaneously forming blood lumen on Matrigel, which can be used to simulate the process of angiogenesis in vivo. We used Matrigel method to investigate the effects of the compound on the lumen formation ability of human umbilical vein endothelial cell HUVEC.
[Test materials] HUVEC (taking generation 3 to 5 cells for experiments after obtained from primary separation and cultured at 37 under the conditions of 5% CO2), Matrigel, cell culture medium M199.
as §1, §2, §5

[5] = test system: human lung cancer A549 transplantation tumor; format: in vivo; settings: BALB/cA nude mice; 60 mg/kg, 6 times every week for 3 weeks; Sorafenib oral 60 mg/kg
Procedure: 9. Tumor inhibition rate of tested compounds on human lung cancer A549 cell transplantation model in nude mice
(§7) [Test animals] female BALB/cA nude mice, 35-40 days old, with weight of 18-22g. There were 12 mice in the negative conrol group and 6 mice in the treatment group.
(§8) The dosage of the compound was 60 mg/kg, 6 times every week for 3 weeks. […] Equal amount of normal saline was administrated in the negative control group. Observe for one week after administration.

[6] = test system: human liver cancer cell bel-7402 transplantation tumor; format: in vivo; settings: 60 mg/kg
Procedure: 10. Tumor inhibition rate of tested compounds on human liver cancer cell bel-7402 transplantation tumor model in nude mice
as §7, §8

[7] = test system: renal carcinoma cell line GCR-1 transplanted tumor; format: in vivo, BALB/cA nude mice; settings: BALB/cA nude mice; 60 mg/kg, 6 times every week for 3 weeks; Sorafenib oral 60 mg/kg
Procedure: 11. Tumor inhibition rate of medicines on renal carcinoma cell line GCR-1 transplanted tumor model in nude mice
as §7
[Test method] […] The dosage of the medicine was 60 mg/kg, 6 times every week for 3 weeks. […] Equal amount of normal saline was administrated in the negative control group. Observe for one week after administration.

mice S180 sarcoma = experiment: Experimental therapeutic action on S180 sarcoma mice; settings: mice S180 sarcoma, 60 mg/kg orally for 9 days
Procedure: Experimental therapeutic action of the compound in the present invention on S180 sarcoma mice
18-25 g female ICR mice and well grown 7-11 day old mice sarcoma S180 tumor seeds were selected, and the seeds were inoculated into the subcutaneous at the right axillary. After inoculated 24 hours, these mice were randomly divided into cages and orally administrated 60 mg/kg for 9 days. On 10 day, the animals were killed and weighed, and the tumor weights were weighed to calculate average tumor weight in each group, followed by calculating the tumor inhibition rate according to the following formula and T test.

[8] = test system: Human colon cancer HT-29 transplantable tumor; experiment: Human colon cancer HT-29 transplantable tumor in nude mice; settings: HT-29 in nude mice, 60 mg/kg ig 9 times
[9] = BALB/cA nude mice, 6 times every week for 3 weeks, Sorafenib oral 60 mg/kg
[10] = Final concentration 1 x 1.0*10^(−5) mol/L

| Molecule | Inhibition rate % on raf kinase (Raf-1(truncated)) [%] | Inhibition rate, growth of human lung cancer cell A549 [1] [%] | Inhibition rate, 95D cell strain migration [2] [%] | Inhibition rate, adhesion ability of human lung cancer cell A549 (lung cancer cell A549) [%] | Inhibition rate, growth of HUVEC cell [3] [%] | Inhibition rate, lumen formation ability of HUVEC [4] [%] | Relative tumor reproduction rate T/C (%) on human lung cancer A549 transplantation tumor in nude mice [5] [%] | Relative tumor reproduction rate T/C (%) on human liver cancer cell bel-7402 transplantation tumor model in nude mice [6, 9] [%] | Relative tumor reproduction rate T/C (%) on human renal carcinoma GCR-1 cell transplanted tumor model in nude mice [7] [%] | Tumor growth inhibition rate (%) (mice S180 sarcoma) | Relative tumor reproduction rate T/C (%) [8] [%] | Inhibition rate, growth of human lung cancer cell A549 [1, 10] [%] | Relative tumor reproduction rate T/C (%) on human liver cancer cell bel-7402 transplantation tumor model in nude mice ([6]; mouse, in vivo, po) [%] |
| --- | --- | --- | --- | --- | --- | --- | --- | --- | --- | --- | --- | --- | --- |
| COc1ncncc1Oc1ccc(NC(=O)Nc2ccc(Br)c(C(F)(F)F)c2)cc1 [Compound 24, N-(4-bromo-3-(trifluoromethyl)phenyl)-N′-(4-(5-(4-methoxypyrimidinyl)oxy)phenyl)urea] | 91.3 | 86.32 | 85.48 | 73.30 | 13.32 | 93.78 | 15.6 | 16.8 | 10.8 | 54.6 | 37.8 | – | – |
| CCNC(=O)c1cc(Oc2ccc(NC(=O)Nc3ccc(Cl)c(OC)c3)c(C)c2)c2ccc([N+](=O)[O-])cc2n1 [Compound 35, N-(4-chloro-3-methoxyphenyl)-N′-(2-methyl-4-(2-(N-ethylcarbamyl)-4-(7-nitryl-quinolinyl)oxy)phenyl)urea] | 45.3 | 55.74 | 68.47 | 75.72 | 5.74 | 65.70 | 23.6 | 34.5 | 32.3 | 55.8 | 51.2 | – | – |
| N-(4-chloro-3-(trifluoromethyl)phenyl)-N′-(4-(2-(N-methylaminoformoxyl)-4-(7-amino-isoquinolyl)oxy)phenyl)urea [Compound 10] | 3.5 | – | 61.43 | 64.57 | 14.50 | 50.34 | 30.1 | 28.1 | 27.1 | 55.2 | 78.9 | 74.50 | – |
| COc1ncncc1Oc1ccc(NC(=O)Nc2ccc(Cl)c(C(F)(F)F)c2)cc1 [Compound 22, N-(4-chloro-3-(trifluoromethyl)phenyl)-N′-(4-(5-(4-methoxypyrimidinyl)oxy)phenyl)urea] | 88.1 | 82.49 | 88.77 | 72.44 | 12.49 | 86.72 | 15.3 | 15.3 | 8.1 | 52.1 | 41.2 | – | – |
| O=C(Nc1ccc(Oc2ncnc3cc(F)ccc23)cc1)Nc1ccc(Cl)c(C(F)(F)F)c1 [Compound 19, N-(4-chloro-3-(trifluoromethyl)phenyl)-N′-(4-(4-(7 fluoroquinazolinyl)oxy)phenyl)urea] | 93.5 | 91.23 | 90.21 | 90.28 | 5.23 | 89.22 | 7.7 | 16.3 | 13.2 | 50.8 | 39.4 | – | – |
| O=C(Nc1ccc(Oc2ccncn2)cc1)Nc1ccc(Cl)c(C(F)(F)F)c1 [Compound B′, reference compound] | – | 61.62 | 61.60 | 69.26 | 31.64 | 61.62 | 40.4 | – | 30.4 | – | – | – | 30.4 |
| N-(4-fluoro-3-(trifluoromethyl)phenyl)-N′-(4-(4-pyrryl)oxy)phenyl)urea [Compound C′, reference compound] | – | 62.25 | 63.20 | 68.62 | 22.27 | 60.50 | 36.6 | 32.6 | 35.6 | – | – | – | – |
| CNC(=O)c1ncc(Oc2ccc(NC(=O)Nc3ccc(F)c(C(F)(F)F)c3)cc2)c(OC)n1 [Compound 8, N-(4-fluoro-3-(trifluoromethyl)phenyl)-N′-(4-(2-(N-methylaminoformoxyl)-5-(4-methoxypyrimidinyl)oxy)phenyl)urea] | – | – | 89.56 | 61.56 | 13.67 | 78.59 | 30.5 | 30.6 | 29.1 | 58.2 | 37.6 | 60.67 | – |
| O=C(Nc1ccc(Oc2ccnc3ccccc23)cc1)Nc1ccc(Cl)c(C(F)(F)F)c1 [Compound A′, reference compound] | – | 58.51 | 63.51 | 71.55 | 23.11 | 60.51 | 43.2 | 37.2 | 34.2 | – | – | – | – |
